This is an account of results in patent publication US20230310438A1 (priority 2019, published 2023).

“Also recorded” adds a separate entry of the source.

This assay relates to whole blood of youth with OUD and healthy controls. Type of assay: cell-based, human.

For the molecule monophosphoryl lipid A [MPLA], the “induction of cytokines and chemokines such as IL-12p40, IL-6, CXCL8, CXCL10, CCL2 and TNF” value is reported as “reduced; also recorded: impaired”.

With `CCOCc1nc2c(N)nc3ccccc3c2n1CC(C)(C)O` [Formula R848, resiquimod], the Th-polarizing cytokine production result is “robust and balanced”.
